Data as given in PubChem BioAssay AID248 (DTP/NCI, 2004).
“And” between values parts separate entries of the source, which are not always exact repeats. Equal values may be shown once. Toxic doses and inconclusive results are not listed.

Test system: L1210 leukemia ip in BDF1 mice, survival T/C
Experiment: NCI In Vivo Anticancer Drug Screen. Data for tumor model L1210 Leukemia (intraperitoneal) in B6D2F1 (BDF1) mice
Conditions: endpoint: mean survival time, higher = longer survival
Experimental: The antitumor activity of compounds was measured in mice bearing transplantable tumors. Survival or tumor size were measured and the results are expressed as the measurement made in the treated group (T) divided by the measurement made in the vehicle treated control group (C). The tumor model used in this assay is L1210 Leukemia (intraperitoneal) in B6D2F1 (BDF1) mice

[1] = dose: 100.0 mg/kg/injection, schedule: Q01DX009 (ip), vehicle: Klucel (hydroxypropylcellulose) (HPC)
[2] = dose: 200.0 mg/kg/injection, schedule: Q01DX009 (ip), vehicle: Klucel (hydroxypropylcellulose) (HPC)
[3] = dose: 400.0 mg/kg/injection, schedule: Q01DX009 (ip), vehicle: Klucel (hydroxypropylcellulose) (HPC)
[4] = dose: 100.0 mg/kg/injection, schedule: Q01DX009 (ip), vehicle: saline
[5] = dose: 100.0 mg/kg/injection, schedule: Q04DX003 (ip), vehicle: saline
[6] = dose: 200.0 mg/kg/injection, schedule: Q04DX003 (ip), vehicle: saline
[7] = dose: 400.0 mg/kg/injection, schedule: Q04DX003 (ip), vehicle: saline
[8] = dose: 100.0 mg/kg/injection, schedule: Q04DX003 (ip), vehicle: Klucel (hydroxypropylcellulose) (HPC)
[9] = dose: 200.0 mg/kg/injection, schedule: Q04DX003 (ip), vehicle: Klucel (hydroxypropylcellulose) (HPC)
[10] = dose: 100.0 mg/kg/injection, schedule: Q01DX001 (ip), vehicle: saline
[11] = dose: 200.0 mg/kg/injection, schedule: Q01DX001 (ip), vehicle: saline
[12] = dose: 400.0 mg/kg/injection, schedule: Q01DX001 (ip), vehicle: saline
[13] = dose: 50.0 mg/kg/injection, schedule: Q01DX009 (ip), vehicle: saline with Tween-80
[14] = dose: 100.0 mg/kg/injection, schedule: Q01DX009 (ip), vehicle: saline with Tween-80
[15] = dose: 100.0 mg/kg/injection, schedule: Q04DX003 (ip), vehicle: saline with Tween-80
[16] = dose: 200.0 mg/kg/injection, schedule: Q01DX009 (ip), vehicle: saline with Tween-80
[17] = dose: 200.0 mg/kg/injection, schedule: Q04DX003 (ip), vehicle: saline with Tween-80
[18] = dose: 400.0 mg/kg/injection, schedule: Q04DX003 (ip), vehicle: saline with Tween-80
[19] = dose: 100.0 mg/kg/injection, schedule: Q04DX002 (ip), vehicle: Klucel (hydroxypropylcellulose) (HPC)
[20] = dose: 200.0 mg/kg/injection, schedule: Q04DX002 (ip), vehicle: Klucel (hydroxypropylcellulose) (HPC)
[21] = dose: 400.0 mg/kg/injection, schedule: Q04DX002 (ip), vehicle: Klucel (hydroxypropylcellulose) (HPC)

Cc1cc(Cl)ccc1OC(=O)Nc1ccccc1F
T/C [1]: 110 % of control
T/C [2]: 98 % of control
T/C [3]: 121 % of control

CCOC(=O)c1ccc(NC(=O)Nc2cc(C(F)(F)F)ccc2Cl)cc1
T/C [1]: 100 % of control
T/C [2]: 104 % of control
T/C [3]: 95 % of control

Cc1ccc(C)c(NC(=O)Oc2ccc(-c3ccccc3)cc2)c1
T/C [4]: 96 % of control
T/C [5]: 109 % of control
T/C (dose: 200.0 mg/kg/injection, schedule: Q01DX009 (ip), vehicle: saline): 95 % of control
T/C [6]: 110 % of control
T/C (dose: 400.0 mg/kg/injection, schedule: Q01DX009 (ip), vehicle: saline): 95 % of control
T/C [7]: 101 % of control

O=C(NCCCOc1ccc([N+](=O)[O-])cc1Cl)Nc1cccc(S(=O)(=O)F)c1
T/C [1]: 92 % of control
T/C [8]: 106 % of control
T/C [2]: 98 % of control
T/C [9]: 103 % of control
T/C [3]: 103 % of control
T/C (dose: 400.0 mg/kg/injection, schedule: Q04DX003 (ip), vehicle: Klucel (hydroxypropylcellulose) (HPC)): 95 % of control

CC(NC(=O)OCc1ccccc1)C(=O)NC1C(CO)OC(n2cnc3c(N)ncnc32)C1O (stereo not given)
T/C [10]: 94 % of control
T/C [11]: 103 % of control
T/C [12]: 100 % of control

COC(=O)C1=CC(C(=O)OC)C(C(=O)OC)N2C=CSC2=C1 (stereo not given)
T/C (dose: 25.0 mg/kg/injection, schedule: Q04DX003 (ip), vehicle: saline): 93 % of control
T/C (dose: 50.0 mg/kg/injection, schedule: Q04DX003 (ip), vehicle: saline): 100 % of control
T/C [5]: 96 % of control

O=C(N/N=C/c1ccco1)c1ccccc1
T/C [13]: 94 % of control and 103 % of control
T/C (dose: 100.0 mg/kg/injection, schedule: Q01DX001 (ip), vehicle: saline with Tween-80): 106 % of control
T/C [14]: 100 % of control and 103 % of control
T/C (dose: 100.0 mg/kg/injection, schedule: Q04DX002 (ip), vehicle: saline with Tween-80): 96 % of control
T/C [15]: 98 % of control
T/C (dose: 200.0 mg/kg/injection, schedule: Q01DX001 (ip), vehicle: saline with Tween-80): 101 % of control
T/C [16]: 103 % of control and 87 % of control
T/C (dose: 200.0 mg/kg/injection, schedule: Q04DX002 (ip), vehicle: saline with Tween-80): 97 % of control
T/C [17]: 105 % of control
T/C (dose: 400.0 mg/kg/injection, schedule: Q01DX001 (ip), vehicle: saline with Tween-80): 114 % of control
T/C (dose: 400.0 mg/kg/injection, schedule: Q04DX002 (ip), vehicle: saline with Tween-80): 110 % of control
T/C [18]: 103 % of control

C1CCC2C3CCC(C3)C2CC1 (stereo not given)
T/C (dose: 100.0 mg/kg/injection, schedule: Q04DX002 (ip), vehicle: other): 122 % of control
T/C (dose: 200.0 mg/kg/injection, schedule: Q04DX002 (ip), vehicle: other): 92 % of control
T/C (dose: 400.0 mg/kg/injection, schedule: Q04DX002 (ip), vehicle: other): 88 % of control

C[As](C)[Se]CC1OC(O)C(O)C(O)C1O (stereo not given)
T/C [13]: 104 % of control

CC(C)(C)OC(=O)c1cc([N+](=O)[O-])cc([N+](=O)[O-])c1
T/C [19]: 104 % of control
T/C [20]: 104 % of control
T/C [21]: 107 % of control

Cc1ccccc1S(=O)(=O)/C(=C(/I)c1ccccc1)c1ccccc1
T/C [10]: 90 % of control
T/C [11]: 92 % of control
T/C [12]: 95 % of control

O=NN1CCCCCCC1C(=O)O (stereo not given)
T/C [10]: 102 % of control
T/C [11]: 98 % of control
T/C [12]: 102 % of control

Cc1cccc(CSc2nc(N)nc3c2ncn3C2CC(O)C(CO)O2)n1 (stereo not given)
T/C (dose: 100.0 mg/kg/injection, schedule: Q01DX005 (ip), vehicle: saline): 104 % of control
T/C [4]: 113 % of control
T/C (dose: 200.0 mg/kg/injection, schedule: Q01DX005 (ip), vehicle: saline): 107 % of control
T/C (dose: 600.0 mg/kg/injection, schedule: Q01DX009 (ip), vehicle: saline): 153 % of control

CC(C)(C#N)CCCCCC(C)(C)C#N
T/C (dose: 50.0 mg/kg/injection, schedule: Q01DX001 (ip), vehicle: saline): 100 % of control
T/C [10]: 96 % of control
T/C [11]: 100 % of control
T/C [12]: 97 % of control

Cc1cnc(NCCCC(N)C(=O)O)nc1 (stereo not given)
T/C (dose: 100.0 mg/kg/injection, schedule: Q04DX002 (ip), vehicle: saline): 95 % of control
T/C (dose: 200.0 mg/kg/injection, schedule: Q04DX002 (ip), vehicle: saline): 95 % of control

OC(CN1CCCC1)c1cc2cc(Br)ccc2s1 (stereo not given)
T/C [10]: 107 % of control

CC(=O)/C=C/C1C(C)=CCCC1(C)C (stereo not given)
T/C [15]: 97 % of control
T/C [17]: 92 % of control
T/C [18]: 100 % of control

ClC(Cl)C(Cl)(Cl)C(Cl)(Cl)Cl
T/C (dose: 50.0 mg/kg/injection, schedule: Q01DX009 (ip), vehicle: Klucel (hydroxypropylcellulose) (HPC)): 96 % of control
T/C [1]: 94 % of control
T/C [8]: 95 % of control
T/C [2]: 98 % of control
T/C [9]: 108 % of control

CC(=O)OCCSc1ccc(C)cc1
T/C [19]: 100 % of control
T/C [20]: 103 % of control
T/C [21]: 100 % of control

Cc1ccc([N+](=O)[O-])cc1/C=C/C(=O)O
T/C [5]: 106 % of control
T/C [6]: 93 % of control
T/C [7]: 104 % of control

O=C(O)c1cc(Br)c(Br)s1
T/C [13]: 98 % of control
T/C [14]: 105 % of control

CC(=O)Nc1ccc(OC(C)=O)cc1[N+](=O)[O-]
T/C [10]: 105 % of control
T/C [11]: 102 % of control
T/C [12]: 102 % of control

Nc1ccc(-c2ccc(N)c(Br)c2)cc1Br
T/C [19]: 99 % of control
T/C [20]: 93 % of control

CCOC(=O)c1ccc(NC(=S)Nc2ccc(C(=O)OCC)cc2)cc1
T/C [14]: 95 % of control
T/C [15]: 89 % of control
T/C [16]: 93 % of control
T/C [17]: 87 % of control
T/C (dose: 400.0 mg/kg/injection, schedule: Q01DX009 (ip), vehicle: saline with Tween-80): 95 % of control
T/C [18]: 94 % of control

CCN(CC)C1=C(Cl)C(=O)C(=O)c2cccnc21
T/C (dose: 18.8 mg/kg/injection, schedule: Q04DX003 (ip), vehicle: saline): 97 % of control
T/C (dose: 37.5 mg/kg/injection, schedule: Q04DX003 (ip), vehicle: saline): 103 % of control
T/C (dose: 75.0 mg/kg/injection, schedule: Q01DX001 (ip), vehicle: saline): 97 % of control
